Patent US12590164B2, “Productivity-enhanced antibody and method for producing same” (Yonsei University BioHealth Technology Holdings, Inc., priority 2018, dated 2026)

Legend:
CHO-K1 cells = test: Rituximab production by transduced CHO-K1 cells after addition of reagent (purified antibody amount, Western blotting of medium); type: cell-based, Chinese hamster; details: for production of the heavy and light chains of rituximab over time: medium at 24, 48, 72 hours
Procedure: Antibody Production: CHO-K1 cells were inoculated into a 12-well plate at 1×10^5 cells/well and then cultured. The next day, the culture medium having lentivirus-containing cells and a fresh culture medium were mixed at a ratio of 1:1, and treatment with this mixture was performed. Culture was performed for 24 hours. The culture medium was replaced with a new medium, and then treatment with puromycin and blasticidin at 10 μg/ml each was performed for selection. When 72 hours elapsed, the remaining cells were proliferated to obtain sufficient cells. For the cells thus obtained, the culture medium was replaced with a serum-free medium (EX-CELL CD CHO Serum-Free Medium for CHO Cells, Chemically Defined, Sigma, 14360C), and then treatment with Thiamet-G (Sigma Cat #SML0244) reagent at a concentration of 30 μM was performed. The cells were cultured in a CO2 incubator at 30° C. for 2 weeks. Then, the culture medium was collected and centrifuged at 1000 rcf for 3 minutes at 4° C. Only the supernatant was transferred separately into a clean tube, and the cells mixed with the supernatant were removed. The resultant was stored at 4° C.
Antibody Purification: the antibody-containing culture medium was treated with protein A agarose beads (Pierce Protein A Agarose, Therm Fisher Scientific, QE218104), and the reaction was allowed to proceed at 4° C. for 4 hours. The supernatant was removed by centrifugation, and washing with a washing buffer (0.1 M NaPO4, 0.15 M NaCl, pH 7.4) was performed five times. For the beads from which the supernatant was removed, elution was again performed 5 times with an elution buffer (0.2 M glycine, pH 3) in the same bead volume. […] Then, the total protein was quantified by the Bradford method.
To identify changes in protein amount of heavy and light chains of antibody caused by treatment with Thiamet-G, the following experiment was performed to check changes in antibody production over time after addition of Thiamet-G. The cell culture medium was collected when 24 hours, 48 hours, and 72 hours elapsed after addition of Thiamet-G at a concentration of 30 μM. […] The ECL solution was used to sensitize an x-ray film (FIG. 2), and production of the heavy and light chains at each time point was analyzed (FIG. 3).
During the antibody production process, the reagent OSMI-1 (Sigma #SML1621), which corresponds to an OGT inhibitor, at a concentration of 30 μM was added in place of Thiamet-G. Then, in the same manner as described above, the cell culture medium was collected when 24 hours, 48 hours, and 72 hours elapsed, and the production of the antibody and its heavy chain was analyzed through Western blotting (FIGS. 4-5). […]

[1] = tested on: O-linked N-acetylglucosamine (O-GlcNAc) in rituximab; test: Degree of binding of O-GlcNAc in rituximab (RL2 Western blotting, metabolic labeling); type: cell-based
Procedure: Based on the total protein amount, the isolated rituximab was subjected to electrophoresis on acrylamide gel so that proteins were separated by size. Then, the proteins were transferred to a nitrocellulose membrane. Portions other than the proteins electrically transferred to the nitrocellulose membrane were blocked with TBS-T containing 5% non-fat milk and 0.1% Tween 20 at room temperature for 1 hour. Incubation with O-linked N-acetylglucosamine (O-GlcNAc)-specific antibody (RL2-HRP) was performed at room temperature for 1 hour, and then washing with TBS-T was performed three times for 10 minutes each. The ECL solution was used to sensitize an x-ray film (FIG. 6A).
The ECL solution was used to sensitize an x-ray film (FIG. 6B).
The cell line was cultured for 72 hours in a serum-free RPMI medium treated with Thiamet-G (TMG) at 50 μM, and then harvested. Then, a cell lysate was prepared. […] Then, Coomassie blue staining was performed. The results are illustrated in FIGS. 7A-7B. Here, however, as a control, Mabthera (Mab) (Roche) was used.
To further identify differences in degree of binding of O-GlcNAc in antibody, a comparison of O-GlcNAc binding amount using metabolic labeling wax performed. […] The cell line was treated with Thiamet-G at 50 μM and Ac4GlcNAz (azido sugar) at 50 μM and cultured for 4 days. […] O-GlcNAc in the rituximab was subjected to metabolic labeling.

[2] = tested on: O-linked N-acetylgalactosamine (O-GalNAc) in rituximab; test: Degree of binding of O-GalNAc in rituximab (Jacalin lectin blotting, LC-MS/MS); type: cell-based
Procedure: The nitrocellulose membrane was blocked with PBS-T (Tween 0.5%) for 1 hour. Then, an O-GalNAc-binding lectin (biotinylated-Jacalin) was added thereto, and incubation was performed at room temperature for 1 hour. Washing with PBS-T was performed three times for 10 minutes each, and then incubation with streptavidin-HRP was performed at room temperature for 30 minutes. Washing with PBS-T was performed three times for 10 minutes each, and then the ECL solution was used to sensitize an x-ray film. […] Then, washing with TBS-T was performed three times for 10 minutes each. The ECL solution was used to sensitize an x-ray film (FIGS. 17A-17B).

[3] = tested on: CHO cell line expressing rituximab; test: Antibody production after Thiamet-G, cell line expressing rituximab; type: cell-based, Chinese hamster; details: 50 μM, 30° C.
Procedure: (§1) The next day, treatment with Thiamet-G at 50 μM in 3 ml of CHO medium was performed, and culture was performed at 30° C. for 2 weeks. Then, the medium was harvested. The same volume of medium was subjected to electrophoresis so that proteins were separated by size, and then the proteins were transferred to a PVDF membrane. Portions other than the proteins electrically transferred to the membrane were blocked with TBS-T containing 5% non-fat milk and 0.1% Tween 20 at room temperature for 1 hour. […] The ECL solution was used to sensitize an x-ray film (FIG. 19), and changes in production depending on treatment with Thiamet-G were measured for each antibody (FIG. 20).
as §1, with “7 days.” for “2 weeks.”, “(FIGS. 22-23).” for “(FIG. 19), and changes in production depending on treatment with Thiamet-G were measured for each antibody (FIG. 20).”

[4] = tested on: CHO cell line expressing nivolumab; test: Antibody production after Thiamet-G, cell line expressing nivolumab; type: cell-based, Chinese hamster; details: 50 μM, 30° C.
Procedure: as §1
as §1, with “7 days.” for “2 weeks.”, “(FIGS. 22-23).” for “(FIG. 19), and changes in production depending on treatment with Thiamet-G were measured for each antibody (FIG. 20).”

[5] = tested on: CHO cell line expressing pembrolizumab; test: Antibody production after Thiamet-G, cell line expressing pembrolizumab; type: cell-based, Chinese hamster; details: 50 μM, 30° C.
Procedure: as §1
as §1, with “7 days.” for “2 weeks.”, “(FIGS. 22-23).” for “(FIG. 19), and changes in production depending on treatment with Thiamet-G were measured for each antibody (FIG. 20).”

Ramos cells [6] = test: Binding affinity of rituximab to Ramos cells by flow cytometry; details: 0.1-10 μg/ml, 4° C. 30 minutes, FACS; compared to the rituximab obtained without any treatment
Procedure: Then, incubation was performed at 4° C. for 30 minutes. Washing with PBS was performed once, and then treatment with anti-human Ig Fc-specific FITC-conjugated secondary antibody (109-095-008, 1:200 dilution; Jackson Laboratories), which was diluted […] with 50 μl PBS, was performed. Incubation was performed at 4° C. for 30 minutes. […] Analysis was performed with the FlowJo software (FIG. 14).

Ramos cells [7] = test: Complement-dependent cytotoxicity with rabbit complement; type: cell-based; details: 0.1-10 ug/ml, rabbit complement 1:4, 2 hours; compared to the rituximab obtained without any treatment
Procedure: Complement-Dependent Cytotoxicity (complementary dependent cell death): Ramos cells were treated with 5 uM of calcein-AM in a serum-free RPMI, and then incubated at 37° C. for 30 minutes. The stained Ramos cells were dispensed in an amount of 1×10^5 cells/well.

Molecule | production of the heavy and light chains of rituximab over time (CHO-K1 cells; 30 μM, Western blotting) | production of rituximab depending on treatment concentration (CHO-K1 cells; 0, 30 or 50 μM for 72 hours, Western blotting) | production of the purified rituximab antibody, increase versus no treatment (CHO-K1 cells; 30 μM, 30° C., 2 weeks, FIG. 1) | O-GlcNAc in rituximab, metabolic labeling ([1]; 50 μM with Ac4GlcNAz 50 μM, 4 days, streptavidin-HRP) | O-GlcNAc in rituximab ([1]; 50 μM, 2 weeks at 30° C., RL2-HRP, reducing and non-reducing conditions) | degree of binding of O-GlcNAc in rituximab ([1]; rituximab of Example 1, RL2-HRP Western blotting, same amount of rituximab) | binding of O-GalNAc to light chain residues of rituximab ([2]; LC-MS/MS, untreated rituximab has O-GalNAc on 7 light chain residues) | O-GalNAc bound to rituximab ([2]; biotinylated-Jacalin lectin blotting, same amount of rituximab) | production of the light chain of rituximab ([3]; 2 weeks) | production of rituximab ([3]; 7 days) | production of the light chain of nivolumab ([4]; 2 weeks) | production of nivolumab ([4]; 7 days) | production of the light chain of pembrolizumab ([5]; 2 weeks) | production of pembrolizumab ([5]; 7 days) | binding affinity (Ramos cells [6]) | complement-dependent cytotoxicity (Ramos cells [7])
COc1ccccc1[C@@H](NS(=O)(=O)c1ccc2[nH]c(=O)ccc2c1)C(=O)N(Cc1ccco1)Cc1cccs1 [OSMI-1] | extent of increase in production decreased as compared with the untreated negative control | – | – | – | – | – | – | – | – | – | – | – | – | – | – | –
CCN=C1N[C@@H]2[C@@H](O)[C@H](O)[C@@H](CO)O[C@@H]2S1 [Thiamet-G] | remarkably increased over time | increased proportionally | about 2 times | increased | increased | increased | decreased in 5 out of the 7 residues | decreased | increased remarkably by two or more times | increased remarkably | increased remarkably by two or more times | increased remarkably | increased remarkably by two or more times | increased remarkably | – | –
rituximab, which underwent O-linked glycosylation by treatment with Thiamet-G: rituximab (SEQ ID NO: 5 and 6) produced in CHO-K1 cells with Thiamet-G, O-GlcNAc bound to light chain serines 7, 12, 14, 181 | – | – | – | – | – | – | – | – | – | – | – | – | – | – | no difference | no difference
